Test results: patent publication US6063774A, “Tricyclic quinoxaline derivatives as neuroprotective agents” (Warner-Lambert Company, priority 1998, dated 2000)

How the values were obtained:
[1] = molecular target: T1, glycine site of the NMDA receptor (Rattus norvegicus, UniProt P35439); test: glycine site of NMDA receptor binding (Jones et al.); details: Table 1
T1 construct: from tissue

[2] = molecular target: kainate site (non-NMDA receptor); test: kainate site binding (London and Coyle); details: Table 1
AMPA receptors = test: AMPA receptor binding (Honore et al.); details: Table 1
mice = test: maximal electroshock time course in mice, with and without probenecid pretreatment; assay type: in vivo
Description: FIG. 1 plots maximal electroshock time course with Compound 1 of the invention, with and without probenecid pretreatment in mice.
The graph is the percent of mice protected versus the time in minutes. The solid circle (.circle-solid.) is the compound from Example 1. In a separate experiment the solid square (.box-solid.) the compound from Example 1 (10 mg/kg, IV) was given to mice (n=5) pretreated with probenecid 30 minutes before the compound.

Row | Compound | IC50 [1] [µM] | IC50 KA [2] [µM] | IC50 (AMPA receptors) [µM] | effect of probenecid pretreatment on protection against maximal electroshock (mice; 10 mg/kg IV, n=5 mice, probenecid 30 minutes before the compound) | protection against maximal electroshock (in words) (mice; 30 mg/kg IV, 5 mice, percent of mice protected versus time plotted in FIG. 1 only)
1 | Cc1c([N+](=O)[O-])cc2[nH]c(=O)c(=O)n3c2c1CN(C)C(=O)C3 [Example 1, 6-8-Dimethyl-5-nitro-7,8-dihydro-3H-d,8,10a-triaza-cyclo-hepta[de]naphthalene-1,2,9-trione] | 0.2 | 1.55 | 0.85 | positively modulated by ion transporter substrates such as probenecid | indicative of the in vivo potency
2 | Cc1c([N+](=O)[O-])cc2[nH]c(=O)c(=O)n3c2c1CN(C)C(=O)C3c1ccccc1 (centres unmarked) [Example 2, 6,8-Dimethyl-5-nitro-10-phenyl-7,8-dihdro-3H-3,8,10a-triaza-cyclohepta(de)morphthalene-1,2,9-trione] | 0.6 | 4.9 | 4.5 | – | –
